PubChem BioAssay (NCI)
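All cell lines were grown in 96-well plates and treated with compound for 48 hours. The concentration for 50% growth inhibition is given as GI50. TGI is the concentration that stops growth completely.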

Columns and labels:
Test in all cases: NCI tumour cell line growth inhibition, 48 h
KM12 colon = tested on: KM12 colon
DU-145 prostate = tested on: DU-145 prostate
CCRF-CEM leukemia = tested on: CCRF-CEM leukemia
HOP-92 NSCLC = tested on: HOP-92 NSCLC
MDA-MB-231 breast = tested on: MDA-MB-231 breast
SR leukemia = tested on: SR leukemia
HS 578T breast = tested on: HS 578T breast
NCI-H226 lung = tested on: NCI-H226 lung
SF-295 CNS = tested on: SF-295 CNS
SK-MEL-28 melanoma = tested on: SK-MEL-28 melanoma
COLO 205 colon = tested on: COLO 205 colon
A498 renal = tested on: A498 renal
MDA-MB-435 = tested on: MDA-MB-435
PC-3 prostate = tested on: PC-3 prostate
HCT-15 colon = tested on: HCT-15 colon
T-47D breast = tested on: T-47D breast
EKVX NSCLC = tested on: EKVX NSCLC
TK-10 renal = tested on: TK-10 renal
RXF 393 renal = tested on: RXF 393 renal
A549 NSCLC = tested on: A549 NSCLC
UACC-62 melanoma = tested on: UACC-62 melanoma
OVCAR-5 ovarian = tested on: OVCAR-5 ovarian
SF-268 CNS = tested on: SF-268 CNS
NCI-H460 lung = tested on: NCI-H460 lung
IGROV1 ovarian = tested on: IGROV1 ovarian
HCT-116 colon = tested on: HCT-116 colon
RPMI-8226 leukemia = tested on: RPMI-8226 leukemia
UACC-257 melanoma = tested on: UACC-257 melanoma
CAKI-1 renal = tested on: CAKI-1 renal
HT29 colon = tested on: HT29 colon
K-562 leukemia = tested on: K-562 leukemia
UO-31 renal = tested on: UO-31 renal
SNB-75 CNS = tested on: SNB-75 CNS
OVCAR-3 ovarian = tested on: OVCAR-3 ovarian
SF-539 CNS = tested on: SF-539 CNS
OVCAR-4 ovarian = tested on: OVCAR-4 ovarian
SNB-19 CNS = tested on: SNB-19 CNS
BT-549 breast = tested on: BT-549 breast
HOP-62 NSCLC = tested on: HOP-62 NSCLC
HL-60(TB) leukemia = tested on: HL-60(TB) leukemia
SK-OV-3 ovarian = tested on: SK-OV-3 ovarian
MCF7 breast = tested on: MCF7 breast
ACHN renal = tested on: ACHN renal
786-0 renal = tested on: 786-0 renal
MOLT-4 leukemia = tested on: MOLT-4 leukemia
HCC-2998 colon = tested on: HCC-2998 colon
OVCAR-8 ovarian = tested on: OVCAR-8 ovarian
NCI/ADR-RES ovarian = tested on: NCI/ADR-RES ovarian
SK-MEL-2 melanoma = tested on: SK-MEL-2 melanoma
U251 CNS = tested on: U251 CNS

Fc1ccc(-c2cc3nc(C(Cl)Cl)nc(-c4ccccc4)n3n2)cc1
GI50 (KM12 colon): 1.59 µM | TGI (KM12 colon): 4.72 µM | GI50 (DU-145 prostate): 0.411 µM | TGI (DU-145 prostate): 2.33 µM | GI50 (CCRF-CEM leukemia): 6.5 µM | TGI (CCRF-CEM leukemia): > 100 µM | GI50 (HOP-92 NSCLC): 1.9 µM | TGI (HOP-92 NSCLC): 4.81 µM | GI50 (MDA-MB-231 breast): 1.76 µM | TGI (MDA-MB-231 breast): 5.76 µM | GI50 (SR leukemia): 2.17 µM | TGI (SR leukemia): > 100 µM | GI50 (HS 578T breast): 3.01 µM | TGI (HS 578T breast): 9.19 µM | GI50 (NCI-H226 lung): > 100 µM | TGI (NCI-H226 lung): > 100 µM | GI50 (SF-295 CNS): 2.21 µM | TGI (SF-295 CNS): 5.63 µM | GI50 (SK-MEL-28 melanoma): 2.01 µM | TGI (SK-MEL-28 melanoma): 3.81 µM | GI50 (COLO 205 colon): 1.15 µM | TGI (COLO 205 colon): 2.5 µM | GI50 (A498 renal): 1.81 µM | TGI (A498 renal): 3.55 µM | GI50 (MDA-MB-435): 1.81 µM | TGI (MDA-MB-435): 3.77 µM | GI50 (PC-3 prostate): 1.75 µM | TGI (PC-3 prostate): 4.39 µM | GI50 (HCT-15 colon): 1.35 µM | TGI (HCT-15 colon): 6.43 µM | GI50 (T-47D breast): 1.86 µM | TGI (T-47D breast): 5.99 µM | GI50 (EKVX NSCLC): 2.04 µM | TGI (EKVX NSCLC): 5.58 µM | GI50 (TK-10 renal): 2.13 µM | TGI (TK-10 renal): 5.26 µM | GI50 (RXF 393 renal): 1.21 µM | TGI (RXF 393 renal): 2.55 µM | GI50 (A549 NSCLC): 1.1 µM | TGI (A549 NSCLC): 2.6 µM | GI50 (UACC-62 melanoma): 2.47 µM | TGI (UACC-62 melanoma): 8.12 µM | GI50 (OVCAR-5 ovarian): 2.29 µM | TGI (OVCAR-5 ovarian): 6.77 µM | GI50 (SF-268 CNS): 1.81 µM | TGI (SF-268 CNS): 5.21 µM | GI50 (NCI-H460 lung): 0.513 µM | TGI (NCI-H460 lung): 2.07 µM | GI50 (IGROV1 ovarian): 4.08 µM | TGI (IGROV1 ovarian): > 100 µM | GI50 (HCT-116 colon): 1.68 µM | TGI (HCT-116 colon): 4.84 µM | GI50 (RPMI-8226 leukemia): 2.2 µM | TGI (RPMI-8226 leukemia): 10 µM | GI50 (UACC-257 melanoma): 2.11 µM | TGI (UACC-257 melanoma): 4.23 µM | GI50 (CAKI-1 renal): 1.82 µM | TGI (CAKI-1 renal): 6.2 µM | GI50 (HT29 colon): 0.737 µM | TGI (HT29 colon): 2.67 µM | GI50 (K-562 leukemia): 2.58 µM | TGI (K-562 leukemia): > 100 µM | GI50 (UO-31 renal): 1.73 µM | TGI (UO-31 renal): 4.2 µM | GI50 (SNB-75 CNS): 7.55 µM | TGI (SNB-75 CNS): > 100 µM | GI50 (OVCAR-3 ovarian): 1.53 µM | TGI (OVCAR-3 ovarian): 3.1 µM | GI50 (SF-539 CNS): 1.97 µM | TGI (SF-539 CNS): 5.12 µM | GI50 (OVCAR-4 ovarian): 2.15 µM | TGI (OVCAR-4 ovarian): 7.32 µM | GI50 (SNB-19 CNS): 1.58 µM | TGI (SNB-19 CNS): 6.6 µM | GI50 (BT-549 breast): 5.44 µM | TGI (BT-549 breast): > 100 µM | GI50 (HOP-62 NSCLC): 1.48 µM | TGI (HOP-62 NSCLC): 3.72 µM | GI50 (HL-60(TB) leukemia): 0.507 µM | TGI (HL-60(TB) leukemia): 74.6 µM | GI50 (SK-OV-3 ovarian): 2.19 µM | TGI (SK-OV-3 ovarian): 5.13 µM | GI50 (MCF7 breast): 0.673 µM | TGI (MCF7 breast): 7.37 µM | GI50 (ACHN renal): 0.777 µM | TGI (ACHN renal): 3.02 µM | GI50 (786-0 renal): 6.33 µM | TGI (786-0 renal): > 100 µM | GI50 (MOLT-4 leukemia): 3.18 µM | TGI (MOLT-4 leukemia): > 100 µM | GI50 (HCC-2998 colon): 1.18 µM | TGI (HCC-2998 colon): 2.55 µM | GI50 (OVCAR-8 ovarian): 1.41 µM | TGI (OVCAR-8 ovarian): 3.87 µM | GI50 (NCI/ADR-RES ovarian): 1.43 µM | TGI (NCI/ADR-RES ovarian): 6.21 µM | GI50 (SK-MEL-2 melanoma): 4.46 µM | TGI (SK-MEL-2 melanoma): > 100 µM | GI50 (U251 CNS): 0.984 µM | TGI (U251 CNS): 2.59 µM
